Measured values from patent US20230202985A1, “Indoles, Indazoles, and Related Analogs for Inhibiting YAP/TAZ-TEAD” (THE KATHOLIEKE UNIVERSITEIT LEUVEN, priority 2021, published 2023).

Columns and labels:
Format in all cases: cell-based
NCI-H2052 = experiment: Mesothelioma cell line proliferation assay (ATPlite), NCI-H2052; conditions: Homo sapiens, 144 h; NCI-H2052 cells, 6 days with compound, cell viability by ATPlite
Protocol: (§1) Mesothelioma cell lines, NCI-H226 and NCI-H2052 (all sourced from the ATCC cell culture collection) are plated in 96-well plates (Corning® 96 Well White Polystyrene Microplate clear flat bottom, white polystyrene (TC-Treated)), at 1500 cells/well in full medium (RPMI 1640 ATCC modification with L-glutamine, HEPES, Phenol Red, Sodium Pyruvate, High glucose, Low sodium bicarbonate and 10% fetal bovine serum). Cells are incubated overnight at 37° C. in an incubator with 5% CO2. Then compounds, dissolved in DMSO, are added in dose-response. Cells are incubated with compound dilutions for another 6 days at 37° C. in an incubator with 5% CO2. Cell viability is quantitated using the ATPlite kit (Perkin-Elmer) and the luminescence is read-out using an Envision instrument (Perkin-Elmer). The amount of relative light units produced using the ATPlite kit is used to calculated percent of inhibition.
(§2) The activities of some example compounds are depicted in Table 7. The activity ranges A, B and C refer to EC50 values in the mesothelioma cell line proliferation assay as described as follows: “A”: EC50<1 μM; “B”: 1 μM≤EC50≤10 μM and “C”: EC50>10 μM; NT: not tested.

NCI-H226 = experiment: Mesothelioma cell line proliferation assay (ATPlite), NCI-H226; conditions: Homo sapiens, 144 h; NCI-H226 cells, 6 days with compound, cell viability by ATPlite
Protocol: as §1, §2

[1] = system: YAP/TAZ-TEAD transcription; experiment: Reporter gene assay for measuring the inhibition of YAP/TAZ-TEAD transcription (TEAD-responsive element luciferase reporter in Hek293T cells); conditions: Homo sapiens, HEK-293T; Hek293T cells transfected with TEAD-responsive luciferase reporter, 24 hours incubation
Protocol: Hek293T cells are cultured in DMEM supplemented with 10% fetal bovine serum, Sodium pyruvate, Sodium bicarbonate, L-glutamine. The cells are harvested and transiently transfected with TEAD-responsive element luciferase reporter. Transfected cells are plated in 384-wells plate containing pre-diluted compounds. After 24 hours incubation at 37° C./5% CO2, assay plates were cooled down to RT and levelled to an equal volume per well, prior to the addition of 25 uL luciferase substrate SteadyLite (Perkin Elmer)/well. The plate was shaken for 10 min at 600 rpm, centrifuged for 1 min at 500 rpm and measured with an Envision reader (PerkinElmer). The amount of relative light units produced by the TEAD reporter is used to calculated percent of inhibition.
The percent of reporter inhibition was calculated in the presence of a positive control inhibitor (100% inhibition) versus a condition with the presence of the vehicle basal activity of the reporter (0% inhibition). The ability of a test compound to inhibit this activity was determined as:
Percentage inhibition=[1−((RLU determined in the presence of vehicle−RLU determined for sample with test compound present) divided by (RLU determined in the presence of vehicle−RLU determined for sample with positive control inhibitor))]*100
The activities of example compounds tested are depicted in Table 6. The activity ranges A, B and C refer to IC50 values in the reporter gene assay as follows: “A”: IC50<1 μM; “B”: 1 μM≤IC50≤20 μM and “C”: IC50>20 μM; NT=not tested.

Structure (SMILES)	EC50 (NCI-H2052)	EC50 (NCI-H226)	EC50 [1]
C=CC(=O)NCc1cc2ccccc2n1-c1ccc(C(F)(F)F)cc1 [compound 29, N-((1-(4-(trifluoromethyl)phenyl)-1H-indol-2-yl)methyl)acrylamide]	< 1000 nM	< 1000 nM	< 1000 nM
C=CC(=O)NCc1nn(-c2ccc(C(F)(F)F)cc2)c2cnccc12 [compound 59, N-[[1-[4-(trifluoromethyl)phenyl]pyrazolo[3,4-c]pyridin-3-yl]methyl]prop-2-enamide]	< 1000 nM	< 1000 nM	< 1000 nM
C=CC(=O)NCc1nn(-c2ccc(OC(F)(F)F)cc2)c2ccccc12 [Cpd. No. 4, N-((1-(4-(trifluoromethoxy)phenyl)-1H-indazol-3-yl)methyl)acrylamide]	< 1000 nM	< 1000 nM	< 1000 nM
C=CC(=O)NCc1nn(-c2ccc(C(F)(F)F)cc2)c2ncccc12 [compound 19, N-((1-(4-(trifluoromethyl)phenyl)-1H-pyrazolo[3,4-b]pyridin-3-yl)methyl)acrylamide]	< 1000 nM	< 1000 nM	< 1000 nM
C=CC(=O)NCc1nn(C2CCC(F)(F)CC2)c2ccccc12 [compound 77, N-[[1-(4,4-difluorocyclohexyl)indazol-3-yl]methyl]prop-2-enamide]	< 1000 nM	< 1000 nM	< 1000 nM
CC(=O)Nc1cn(-c2ccc(C(F)(F)F)cc2)c2ccccc12 [compound 21, N-(1-(4-(trifluoromethyl)phenyl)-1H-indol-3-yl)acetamide]	1000 to 10000 nM	< 1000 nM	< 1000 nM
C=CC(=O)NCc1nn(-c2ccc(C(F)(F)F)cc2)c2ccc(Oc3ccccc3)cc12 [compound 49, N-[[5-phenoxy-1-[4-(trifluoromethyl)phenyl]indazol-3-yl]methyl]prop-2-enamide]	< 1000 nM	< 1000 nM	< 1000 nM
CS(=O)(=O)NCc1nn(-c2ccc(C(F)(F)F)cc2)c2ccc(OCC#N)cc12 [compound 42, N-[[5-(cyanomethoxy)-1-[4-(trifluoromethyl)phenyl]indazol-3-yl]methyl]methanesulfonamide]			> 20000 nM
C=CC(=O)NC1C(=O)N(c2ccc(C(F)(F)F)cc2)c2ccccc21 (stereo not shown) [compound 33, N-(2-oxo-1-(4-(trifluoromethyl)phenyl)indolin-3-yl)acrylamide]			1000 to 20000 nM
CS(=O)(=O)NCc1nn(-c2ccc(C(F)(F)F)cc2)c2cc(OC3CC3)ccc12 [compound 61, N-[[6-(cyclopropoxy)-1-[4-(trifluoromethyl)phenyl]indazol-3-yl]methyl]methanesulfonamide]			1000 to 20000 nM
CCC(=O)NCc1nn(-c2ccc(OC(F)(F)F)cc2)c2ccccc12 [compound 5, N-((1-(4-(trifluoromethoxy)phenyl)-1H-indazol-3-yl)methyl)propionamide]			1000 to 20000 nM
CN(C)S(=O)(=O)NCc1nn(-c2ccc(C(F)(F)F)cc2)c2ccccc12 [compound 13, N,N-dimethyl-N′-((1-(4-(trifluoromethyl)phenyl)-1H-indazol-3-yl)methyl)sulfamide]			1000 to 20000 nM
CS(=N)(=O)NCc1nn(-c2ccc(C(F)(F)F)cc2)c2ccccc12 (stereo not shown) [compound 16, N-((1-(4-(trifluoromethyl)phenyl)-1H-indazol-3-yl)methyl)methanesulfonimidamide]			1000 to 20000 nM
CS(=O)(=O)NCc1nn(-c2ccc(C(F)(F)F)cc2)c2cc(C(F)(F)F)ccc12 [compound 76, N-[[6-(trifluoromethyl)-1-[4-(trifluoromethyl)phenyl]indazol-3-yl]methyl]methanesulfonamide]			1000 to 20000 nM
Cn1ccc(-c2cc(-c3ccccc3)cn3cc(CC(=O)O)nc23)n1 [compound 35, 2-(8-(1-methyl-1H-pyrazol-3-yl)-6-phenylimidazo[1,2-a]pyridin-2-yl)acetic acid]			> 20000 nM
CS(=O)(=O)NCc1nn(-c2ccc(C(F)(F)F)cc2)c2ccc(Oc3ccccc3)cc12 [Cpd. No. 45, N-[[5-phenoxy-1-[4-(trifluoromethyl)phenyl]indazol-3-yl]methyl]methanesulfonamide]			1000 to 20000 nM
O=S(=O)(NCc1nn(-c2ccc(C(F)(F)F)cc2)c2ccccc12)c1cccnc1 [compound 10, N-((1-(4-(trifluoromethyl)phenyl)-1H-indazol-3-yl)methyl)pyridine-3-sulfonamide]			> 20000 nM
C#CCOc1ccc2c(c1)c(CNS(C)(=O)=O)nn2-c1ccc(C(F)(F)F)cc1 [compound 65, N-[[5-prop-2-ynoxy-1-[4-(trifluoromethyl)phenyl]indazol-3-yl]methyl]methanesulfonamide]			> 20000 nM
CC(=O)NCc1nn(-c2ccc(C(F)(F)F)cc2)c2cc(C(F)(F)F)ccc12 [compound 75, N-[[6-(trifluoromethyl)-1-[4-(trifluoromethyl)phenyl]indazol-3-yl]methyl]acetamide]			> 20000 nM
CCC(=O)NCc1nn(-c2ccc(C(F)(F)F)cc2)c2ccccc12 [compound 2, N-((1-(4-(trifluoromethyl)phenyl)-1H-indazol-3-yl)methyl)propionamide]			1000 to 20000 nM
C=CC(=O)NCc1nn(-c2ccc(C(F)(F)F)cc2)c2ccc(Oc3cc(=O)[nH]c(=O)n3C)cc12 [compound 51, N-[[5-(3-methyl-2,6-dioxo-pyrimidin-4-yl)oxy-1-[4-(trifluoromethyl)phenyl]indazol-3-yl]methyl]prop-2-enamide]			< 1000 nM
CC(=O)NC1C(=O)N(c2ccc(C(F)(F)F)cc2)c2ccccc21 (stereo not shown) [compound 34, N-(2-oxo-1-(4-(trifluoromethyl)phenyl)indolin-3-yl)acetamide]			> 20000 nM
CS(=O)(=O)NCc1nn(-c2ccc(C(F)(F)F)cc2)c2ccc(C(F)(F)F)cc12 [compound 73, N-[[5-(trifluoromethyl)-1-[4-(trifluoromethyl)phenyl]indazol-3-yl]methyl]methanesulfonamide]			1000 to 20000 nM
CS(=O)(=O)NCc1nn(-c2ccc(C(F)(F)F)cc2)c2ccc(OCc3ccccc3)cc12 [compound 56, N-[[5-benzyloxy-1-[4-(trifluoromethyl)phenyl]indazol-3-yl]methyl]methanesulfonamide]			1000 to 20000 nM
CCC(=O)NCc1nn(-c2ccc(C(F)(F)F)cc2)c2cc(OC3CC3)ccc12 [compound 62, N-[[6-(cyclopropoxy)-1-[4-(trifluoromethyl)phenyl]indazol-3-yl]methyl]propanamide]			> 20000 nM
O=S1(=O)CCCN1Cc1nn(-c2ccc(C(F)(F)F)cc2)c2ccccc12 [compound 7, 2-((1-(4-(trifluoromethyl)phenyl)-1H-indazol-3-yl)methyl)isothiazolidine 1,1-dioxide]			1000 to 20000 nM
CS(=O)(=O)NCc1nn(-c2ccc(C(F)(F)F)cc2)c2ccc(OCc3cc[nH]n3)cc12 [compound 52, N-[[5-(1H-pyrazol-3-ylmethoxy)-1-[4-(trifluoromethyl)phenyl]indazol-3-yl]methyl]methanesulfonamide]			1000 to 20000 nM
CS(=O)(=O)NCc1nn(-c2ccc(C(F)(F)F)cc2)c2ccc(OCC3CC3)cc12 [compound 68, N-[[5-(cyclopropylmethoxy)-1-[4-(trifluoromethyl)phenyl]indazol-3-yl]methyl]methanesulfonamide]			< 1000 nM
O=C1NCCN1Cc1nn(-c2ccc(C(F)(F)F)cc2)c2ccccc12 [compound 17, 1-((1-(4-(trifluoromethyl)phenyl)-1H-indazol-3-yl)methyl)imidazoiidin-2-one]			< 1000 nM
